{"source": "patent US20160312292A1", "about": "“METHODS FOR TREATING HEMATOLOGICAL CANCERS AND THE USE OF BIOMARKERS AS A PREDICTOR OF CLINICAL SENSITIVITY TO IMMUNODULATORY THERAPIES” (CELGENE CORPORATION, priority 2013, published 2016)", "tested_on": "refractory or relapsed diffuse large B-Cell lymphoma (DLBCL) patients", "test": "Clinical trial of lenalidomide in refractory or relapsed DLBCL patients: best response, PFS, OS", "type": "in vivo, human", "from_the_text": "A clinical trial was formed with four arms, each arm containing 25 patients. One arm contained patients classified as presenting germinal center B-cell-like DLBCL subtypes receiving lenalidomide, a second arm contained patients classified as presenting germinal center B-cell-like DLBCL subtypes receiving another therapy selected by the investigator, a third arm contained patients classified as presenting activated B-cell-like DLBCL subtypes receiving lenalidomide, and a fourth arm contained patients classified as presenting activated B-cell-like DLBCL subtypes receiving another therapy selected by the investigator. The patients in the four arms of the clinical trial received treatment until disease progression.\nFor purposes of this exploratory analysis, a subset of the clinical data associated to each patient comprised the therapy arm, Revlimid (REV) or control drug (CON), and their corresponding response to the drug in both categorical variable {complete response (CR), partial response (PR), establish disease (SD), progression disease (PD) and Death} and continuous variables as progression free survival (PFS) and overall (OS), unit weeks. It also includes the predicted DLBCL sub-type (ABC/GCB) and other demographic data. […]", "note": "Values joined by “and” are separate entries in the source; they are usually repeats but may differ in a detail not shown here. Identical values can stand only once.", "data": [{"smiles": "Nc1cccc2c1CN(C1CCC(=O)NC1=O)C2=O", "note": "(centres unmarked) [lenalidomide, 3-(4-amino-1-oxo-1,3-dihydro-isoindol-2-yl)-piperidine-2,6-dione]", "values": [{"measurement": "progression free survival (PFS)", "setting": "individual Revlimid-arm DLBCL patients whose baseline FF profile had a non-zero estimated proportion of NK-cells", "result": "27 weeks and 31.9 weeks and 32.4 weeks and 85.3 weeks"}, {"measurement": "progression free survival (PFS)", "setting": "one lenalidomide-treated DLBCL patient with low B aIgM proportion who died shortly after starting treatment", "result": "< 3", "unit": "weeks"}]}]}
